The source of these data is patent publication US20260130932A1, “NOVEL COMBINATION OF RIFAXIMIN AND CLARITHROMYCIN FOR TREATING MULTIDRUG-RESISTANT MYCOBACTERIUM ABSCESSUS” (priority 2022, published 2026).

The test system of assay [1] is M. abscessus ATCC 19977, M. abscessus strains M422 and M110. Put plainly: Checkerboard synergy assay, statements on all 3 M. abscessus strains. The class given is cell-based, Mycobacterium abscessus. On the procedure:
(§1) For checkerboard synergy assay, 3 M. abscessus strains were used: M. abscessus ATCC 19977, M. abscessus strains M422 and M110, while bactericidal activity determination and the zebrafish study were performed with M. abscessus ATCC 19977. All three strains of M. abscessus harbor the inducible clarithromycin resistance-conferring erm(41) T28 sequevar. M. abscessus strain M422 and M110 were provided by Dr. Jeanette Teo, National University Hospital, Singapore (Chew K L, et al., 2017. J Med Microbiol 66: 1443-1447). M. abscessus ATCC 19977 and M. avium ATCC 700898 were acquired from American Type Culture Collection (ATCC).
(§2) With Rfx identified as the best potentiator of Clr activity, the interaction between Rfx and Clr was investigated by a checkerboard synergy approach using a broth microdilution method performed in 96-well plates. To provide a classification of the combined antibiotics based on the fractional inhibitory concentration index (FICI), this assay applied the combination of Clr and Rfx in concentrations of 0-64 μg/ml by 2-fold serial dilutions along the abscissa and ordinate, respectively. The FICI was calculated by summing the FIC of Rfx and the FIC of Clr. FIC of Clr is the MIC of Clr in the presence of Rfx divided by MIC of Clr alone. FIC of Rfx was similarly calculated.
(§3) To characterize the interaction between Clr and Rfx, checkerboard synergy assays were performed on pre-induced Clr-resistant M. abscessus. The fractional inhibitory concentration index (FICI) obtained from the checkerboard assay defines whether the interaction between the two compounds is either synergistic (FICI≤0.5), additive (0.5<FICI≤1.0), indifferent (1.0<FICI≤4.0), or antagonistic (FICI >4.0) (Noel D J, Keevil C W, Wilks S A. 2021. MBio 12).

Assay [2] relates to M. avium ATCC 700898 (uninduced). As to the kind of experiment: Checkerboard synergy assay. It is filed as cell-based, Mycobacterium avium. Conditions: for MIC90: Mycobacterium avium, ATCC700898. The protocol: as §2
As both M. abscessus and M. avium are the main organism groups causing pulmonary NTM (Lim A Y H, et al., 2018. BMC Pulm Med 18 (1):85; Tan Y, et al., 2018. BMC Pulm Med 18 (1): 168), the inventors tested the combination of Clr and Rfx against M. avium in the checkerboard assay as well. With a FICI of 0.563, the interaction between Clr and Rfx was additive in M. avium.

Assay [3] concerns M. abscessus ATCC 19977. As to the kind of experiment: Zebrafish embryo infection model. The class given is in vivo, zebrafish (Denio rerio). From the text:
To visualize the bacterial infection in the zebrafish (Denio rerio), a fluorescent strain of M. abscessus ATCC 19977 containing pJKD2893:mScarlet was generated. The pJKD2893 plasmid backbone was a kind gift from Professor Timothy Stinear. The gene expressing the fluorescent protein mScarlet was amplified from μMRE135-mScarlet (Addgene #118489, Mitja Remus-Emsermann lab). The amplification product was annealed by Gibson cloning with the pJKD2893 backbone amplified from a sample of pJKD2893. The resulting plasmid, termed pJKD2893:mScarlet, was electroporated into M. abscessus ATCC 19977 at a culture density equivalent to OD600˜20 using a BioRad GenePulser Xcell set at 2.5 kV, 25 uF, and 1,000Ω. […] Colonies carrying the plasmid were identified by their fluorescence. […]
Preparation of M. abscessus Inoculum and Zebrafish Infections Cultures of M. abscessus-pJKD2893:mScarlet in 7H9 media supplemented with 50 μg/ml kanamycin were grown to OD600 of 0.2-0.3 and concentrated to OD600 of 1 in 0.1% PBS-Tween-20. […] The actual CFU in the inoculum was determined a posteriori by injecting into 50 μl 0.1% PBS-Tween-20 and streaking on a plate. […]
Larvae were harvested to assess the bacterial load at 5 d post-infection using a slightly modified version of the Kremer lab method (Bernut et al., Antimicrob Agents Chemother 58: 4054-4063). […] Fluorescent colonies were counted after 5-6 days. […]

Assay [4] deals with M. abscessus ATCC 19977 (pre-induced). As to the kind of experiment: microbe, parasite or virus in culture. It is filed as cell-based, Mycobacterium abscessus. On the procedure: (§4) The FICI was calculated by summing the FIC of Rfx and the FIC of Clr. FIC of Clr is the MIC of Clr in the presence of Rfx divided by MIC of Clr alone. FIC of Rfx was similarly calculated.
as §3

In assay [5] the test system is M. abscessus strain M422. As to the kind of experiment: Primary compound screening against pre-induced bacterial cells. The class given is cell-based, Mycobacterium abscessus. Particulars: 50 μM compound with 4 μg/ml Clr. On the procedure: A total of 2,252 drugs/compounds comprising 1,576 FDA-approved drugs and 676 clinical compounds were purchased from MedChemExpress. The compounds were dissolved in dimethyl sulfoxide (DMSO) to a stock concentration of 10 mM. The Clr resistance in M. abscessus was induced for 3 days under 0.5 μg/ml of Clr before being subjected to compound screening.
(§5) Primary screening was carried out in 96-well flat-bottom Corning Costar cell culture plates at 50 μM compound along with 4 μg/ml of Clr in a starting inoculum of pre-induced M. abscessus cells at OD600 of 0.005 in a final volume of 100 μl. The plates were put in an airtight container with moist paper towels and incubated for 4 d at 30° C. The cultures in the wells were resuspended before OD600 was read in a BioTek Synergy 4 plate reader.
A compound library consisting of 2,252 FDA-approved and clinical-stage drugs was screened against M. abscessus clinical strain M422. Bacteria were exposed to a sub-inhibitory concentration of Clr (0.5 μg/ml) for 3 days to induce Clr resistance. The test drugs were screened at 50 μM in the presence of 4 μg/ml of Clr to maintain the Clr-resistance phenotype.

The test system of assay [6] is M. abscessus strain M422. Put plainly: Single-concentration assay with and without clarithromycin (hit validation). It is filed as cell-based, Mycobacterium abscessus. On the procedure:
as §1, §5
To start the validation process, the top 10 compounds with >90% growth inhibition were chose to perform a single-concentration assay, with and without clarithromycin. Finally, the inventors obtained 7 compounds that potentiated Clr efficacy.

Assay [7] deals with M. abscessus strain M110 (pre-induced). As to the kind of experiment: microbe, parasite or virus in culture. It is filed as cell-based, Mycobacterium abscessus. The protocol:
as §4, §3

The test system of assay [8] is M. abscessus strain M422 (pre-induced). Put plainly: microbe, parasite or virus in culture. It is filed as cell-based, Mycobacterium abscessus. The protocol:
as §4, §3

In assay [9] the test system is M. abscessus ATCC 19977. Conditions: positive control, earlier report; cited from earlier work.
Where [10] appears, read: Mycobacteroides abscessus, alone, read-out: MIC90 Rfx individually.

Where “and” joins values, the source holds several entries; their conditions need not be identical. Identical values can stand only once. Like-named read-outs stand apart in the source and are kept apart here.

For `CC[C@H]1OC(=O)[C@H](C)[C@@H](O[C@H]2C[C@@](C)(OC)[C@@H](O)[C@H](C)O2)[C@H](C)[C@@H](O[C@@H]2O[C@H](C)C[C@H](N(C)C)[C@H]2O)[C@](C)(OC)C[C@@H](C)C(=O)[C@H](C)[C@@H](O)[C@]1(C)O` [Clarithromycin, clarithromycin], in [1] (pre-induced M. abscessus strains (FIG. 4, Table 2)), the “reduction of the MIC of Clr when used in combination with Rfx” value was “at least 16 fold”. Moreover, the MIC90 in assay [2] (read-out: MIC90) is under 0.1 µg/mL. In the assay with M. abscessus ATCC 19977 [3] (Clr alone up to 74.8 μg/ml (100 μM), immersion for 4 days (FIG. 6A)), the “effect on bacterial load” value is recorded as “unable to reduce bacterial load”. In addition, the “Percentage of bacterial growth” value in [4] (clarithromycin 1 μg/ml, partner antibiotic 0 μg/ml) was 80.1% and 116.9% and 119.5% and 108.3% and 97.8% and 90.2% and 95.5%; in [4] (clarithromycin 2 μg/ml, partner antibiotic 0 μg/ml) it was 80.6% and 99.5% and 102.2% and 98.9% and 80.2% and 84.8% and 96.8%; in assay [4] (clarithromycin 4 μg/ml, partner antibiotic 0 μg/ml) it was 86.2% and 113.2% and 103.4% and 117.2% and 82.7% and 78.4% and 93.3%; in assay [4] (clarithromycin 8 μg/ml, partner antibiotic 0 μg/ml) it was 76.2% and 102.8% and 93.2% and 108.1% and 71.4% and 97.4% and 92.9%; in [4] (clarithromycin 16 μg/ml, partner antibiotic 0 μg/ml) it was 64.0% and 109.5% and 86.1% and 101.8% and 72.3% and 89.6% and 89.7%; in [4] (clarithromycin 32 μg/ml, partner antibiotic 0 μg/ml), 77.4% and 84.3% and 83.8% and 115.7% and 59.0% and 98.2% and 95.4%.
Turning to `CO[C@H]1/C=C/O[C@@]2(C)Oc3c(C)c(O)c4c(c3C2=O)C2=NC3(CCN(CC(C)C)CC3)NC2=C(NC(=O)/C(C)=C\C=C\[C@H](C)[C@H](O)[C@@H](C)[C@@H](O)[C@@H](C)[C@H](OC(C)=O)[C@@H]1C)C4=O` [rifabutin], the “hit status in primary screening” value in the assay on M. abscessus strain M422 [5] is recorded as “one of the top hits”. For the same compound, the “Percentage of bacterial growth” value was 105.5% in [4] (clarithromycin 0 μg/ml, partner antibiotic 1 μg/ml); 101.8% in [4] (clarithromycin 0 μg/ml, partner antibiotic 2 μg/ml); 99.4% in assay [4] (clarithromycin 0 μg/ml, partner antibiotic 4 μg/ml); 100.2% in [4] (clarithromycin 0 μg/ml, partner antibiotic 8 μg/ml); 79.1% in assay [4] (clarithromycin 0 μg/ml, partner antibiotic 16 μg/ml); 9.2% in assay [4] (clarithromycin 0 μg/ml, partner antibiotic 32 μg/ml). Moreover, the “Percentage of bacterial growth” value in assay [4] (clarithromycin 0 μg/ml, partner antibiotic 64 μg/ml) was determined as 1.2%.
On to `CO[C@H]1/C=C/O[C@@]2(C)Oc3c(C)c(O)c4c(O)c(c5c(nc6cc(C)ccn65)c4c3C2=O)NC(=O)/C(C)=C\C=C\[C@H](C)[C@H](O)[C@@H](C)[C@@H](O)[C@@H](C)[C@H](OC(C)=O)[C@@H]1C` [Rifaximin, rifaximin], for which the “concentration at which significant synergistic effects with clarithromycin are shown” value in assay [1] (Table 2) was at least 1 µg/mL. For the same compound, the “MIC of Rfx” value in assay [1] (tested alone) is “extremely high”. The MIC90 in [2] (alone, read-out: MIC90 Rfx individually) was 0.03 µg/mL; in assay [2] (read-out: MIC90) it was under 0.1 µg/mL; in [7] (setting [10]), 128 µg/mL; in [4] (Mycobacteroides abscessus, ATCC19977, read-out: MIC90 Rfx individually), 128 µg/mL; in assay [8] (setting [10]), 16 µg/mL. The “MIC90 Rfx in combination” value in assay [2] (in combination with Clr) is 0.015 µg/mL; in assay [7] it was 4 µg/mL; in assay [4] (in combination with Clr), 4 µg/mL; in [8], 1 µg/mL. Moreover, in the assay with M. abscessus ATCC 19977 [3] (19.6 μg/ml Rfx alone, immersion for 4 days), the CFU reduction result was “did not show any CFU reduction”. Besides, in the assay with M. abscessus strain M422 [6] (compound combined with clarithromycin), the “% inhibition with 0.5 μg/ml Clr” value turned out to be 100%. For the same compound, the “% inhibition with compound alone” value in the assay on M. abscessus strain M422 [6] (without clarithromycin) worked out at 85.6%.
Consider `COc1nc2ccc(Br)cc2cc1[C@@H](c1ccccc1)[C@@](O)(CCN(C)C)c1cccc2ccccc12` [Bedaquiline], for which the “efficacy against M. abscessus in zebrafish embryos” value in the assay on M. abscessus ATCC 19977 [9] is given as “demonstrated efficacy”.
